Laboratory results taken from patent publication US20120053053A1, “PYRIMIDINE DERIVATIVES AND THEIR USE AS HERBICIDES” (SYNGENTA CROP PROTECTION, LLC, priority 2009, published 2012).

Key:
[1] = test system: Amaranthus retoflexus (AMARE); assay: Post-emergence biological efficacy (percentage damage); type: in vivo; settings: Amaranthus retroflexus, 312 h, evaluated after 13 days, 100=total damage, 0=no damage; for pest or weed control at 1000 g/ha: dose 1,000 g/ha
In short: (§1)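 Seedlings grown 8 days in soil in a glasshouse (24/16 °C day/night, 14 h light, 65% humidity), then sprayed with compound in acetone/water (50:50) with 0.5% Tween 20 at 250 or 1000 g/ha. Damage scored visually after 13 days (0 = none, 100 = total).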

Solanum nigrum (SOLNI) [2] = assay: as above; type: in vivo; settings: Solanum nigrum, 312 h, evaluated after 13 days, 100=total damage, 0=no damage; for pest or weed control at 1000 g/ha: dose 1,000 g/ha
In short: as §1

[3] = test system: Ipomea hederaceae (IPOHE); assay: as above; type: in vivo; settings: Ipomoea hederacea, 312 h, evaluated after 13 days, 100=total damage, 0=no damage; for pest or weed control at 1000 g/ha: dose 1,000 g/ha
In short: as §1

[4] = test system: Alopecurus myosuroides (ALOMY); assay: as above; type: in vivo; settings: Alopecurus myosuroides, 312 h, evaluated after 13 days, 100=total damage, 0=no damage; for pest or weed control at 1000 g/ha: dose 1,000 g/ha
In short: as §1

Setaria faberi (SETFA) [5] = assay: as above; type: in vivo; settings: Setaria faberi, 312 h, evaluated after 13 days, 100=total damage, 0=no damage; for pest or weed control at 1000 g/ha: dose 1,000 g/ha
In short: as §1

[6] = test system: Echinochloa crus-galli (ECHCG); assay: as above; type: in vivo; settings: Echinochloa crus-galli, 312 h, evaluated after 13 days, 100=total damage, 0=no damage; for pest or weed control at 1000 g/ha: dose 1,000 g/ha
In short: as §1

[7] = test system: Amaranthus retoflexus (AMARE); assay: Pre-emergence biological efficacy (percentage damage); type: in vivo; settings: Amaranthus retroflexus, 312 h, evaluated after 13 days, 100=total damage, 0=no damage; for pest or weed control at 1000 g/ha: dose 1,000 g/ha
In short: (§2)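 Seeds were sown in standard soil in pots and, one day later, sprayed with test compound at 250 or 1000 g/ha in acetone/water (50:50) with 0.5% Tween 20. Plants grew in a glasshouse at 24/16 °C day/night, 14 h light, 65% humidity; damage was scored after 13 days (0 = none, 100 = total).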

Solanum nigrum (SOLNI) [8] = assay: as above; type: in vivo; settings: Solanum nigrum, 312 h, evaluated after 13 days, 100=total damage, 0=no damage; for pest or weed control at 1000 g/ha: dose 1,000 g/ha
In short: as §2

[9] = test system: Ipomea hederaceae (IPOHE); assay: as above; type: in vivo; settings: Ipomoea hederacea, 312 h, evaluated after 13 days, 100=total damage, 0=no damage; for pest or weed control at 1000 g/ha: dose 1,000 g/ha
In short: as §2

[10] = test system: Alopecurus myosuroides (ALOMY); assay: as above; type: in vivo; settings: Alopecurus myosuroides, 312 h, evaluated after 13 days, 100=total damage, 0=no damage; for pest or weed control at 1000 g/ha: dose 1,000 g/ha
In short: as §2

Setaria faberi (SETFA) [11] = assay: as above; type: in vivo; settings: Setaria faberi, 312 h, evaluated after 13 days, 100=total damage, 0=no damage; for pest or weed control at 1000 g/ha: dose 1,000 g/ha
In short: as §2

[12] = test system: Echinochloa crus-galli (ECHCG); assay: as above; type: in vivo; settings: Echinochloa crus-galli, 312 h, evaluated after 13 days, 100=total damage, 0=no damage; for pest or weed control at 1000 g/ha: dose 1,000 g/ha
In short: as §2

| Compound | pest or weed control at 1000 g/ha [1] [%] | pest or weed control at 1000 g/ha (Solanum nigrum (SOLNI) [2]) [%] | pest or weed control at 1000 g/ha [3] [%] | pest or weed control at 1000 g/ha [4] [%] | pest or weed control at 1000 g/ha (Setaria faberi (SETFA) [5]) [%] | pest or weed control at 1000 g/ha [6] [%] | pest or weed control at 1000 g/ha [7] [%] | pest or weed control at 1000 g/ha (Solanum nigrum (SOLNI) [8]) [%] | pest or weed control at 1000 g/ha [9] [%] | pest or weed control at 1000 g/ha [10] [%] | pest or weed control at 1000 g/ha (Setaria faberi (SETFA) [11]) [%] | pest or weed control at 1000 g/ha [12] [%] | also measured |
| --- | --- | --- | --- | --- | --- | --- | --- | --- | --- | --- | --- | --- | --- |
| COC(=O)c1nc(C2CC2)nc(N)c1C [Compound 2-41] | 100 | 90 | 100 | 40 | 80 | 60 | 70 | 50 | 60 | 20 | 30 | 20 | melting point: 152 to 153 °C |
| C=Cc1c(N)nc(-c2cc(F)c(F)c(F)c2)nc1C(=O)OC [Compound 63-61, 4-Amino-5-ethenyl-6-methoxycarbonyl-2-(3,4,5-trifluorophenyl)-pyrimidine] | 0 | 20 | 20 | 0 | 0 | 0 | 0 | 0 | 0 | 0 | 0 | 0 |  |
| C=Cc1ccc(-c2nc(N)c(C=C)c(C(=O)OC)n2)c(F)c1N(C)C [Compound 64-61, 4-amino-2-(3-dimethylamino-4-ethenyl-2-fluorophenyl)-5-ethenyl-6-methoxycarbonylpyrimidine] | 100 | 60 | 10 | 10 | 30 | 10 | 30 | 10 | 0 | 10 | 10 | 10 |  |
| COC(=O)c1nc(-c2ccc(C(C)=O)c(OC)c2F)nc(N)c1C(C)=O [Compound 65-53, 4-Amino-2-(2-fluoro-3-methoxy-4-methylcarbonyl-phenyl)-6-methoxycarbonyl-5-methylcarbonyl-pyrimidine] | 20 | 70 | 50 | 0 | 10 | 10 | 0 | 0 | 20 | 0 | 0 | 0 |  |
| C=C(OCC)c1ccc(-c2nc(N)c(C(C)=O)c(C(=O)OC)n2)c(F)c1OC [Compound 66-53, 4-amino-2-(4-[1-ethoxyethenyl]-2-fluoro-3-methoxy-phenyl)-6-methoxycarbonyl-5-methylcarbonyl-pyrimidine] | 20 | 60 | 30 | 0 | 10 | 0 | 10 | 20 | 30 | 0 | 0 | 0 |  |
| C=Cc1c(N)nc(-c2ccc(F)c(F)c2)nc1C(=O)OC [Compound 67-61, 4-Amino-2-(3,4-difluorophenyl)-5-ethenyl-6-methoxycarbonyl-pyrimidine] | 100 | 90 | 60 | 20 | 10 | 40 | 100 | 70 | 50 | 30 | 30 | 30 |  |
| C=Cc1c(N)nc(-c2ccc(C#N)cc2)nc1C(=O)OC [Compound 68-61, 4-Amino-2-(4-cyanophenyl)-5-ethenyl-6-methoxycarbonyl-pyrimidine] |  |  |  |  |  |  |  |  |  |  |  |  | pest or weed control at 250 g/ha ([1]; dose 250 g/ha): 30%; pest or weed control at 250 g/ha (Solanum nigrum (SOLNI) [2]; dose 250 g/ha): 80%; pest or weed control at 250 g/ha ([3]; dose 250 g/ha): 40%; pest or weed control at 250 g/ha ([4]; dose 250 g/ha): 0%; pest or weed control at 250 g/ha (Setaria faberi (SETFA) [5]; dose 250 g/ha): 0%; pest or weed control at 250 g/ha ([6]; dose 250 g/ha): 0%; pest or weed control at 250 g/ha ([7]; dose 250 g/ha): 10%; pest or weed control at 250 g/ha (Solanum nigrum (SOLNI) [8]; dose 250 g/ha): 30%; pest or weed control at 250 g/ha ([9]; dose 250 g/ha): 0%; pest or weed control at 250 g/ha ([10]; dose 250 g/ha): 0%; pest or weed control at 250 g/ha (Setaria faberi (SETFA) [11]; dose 250 g/ha): 0%; pest or weed control at 250 g/ha ([12]; dose 250 g/ha): 0% |
| C=Cc1c(N)nc(-c2ccc(C(=O)OC)cc2)nc1C(=O)OC [Compound 69-61, 4-Amino-5-ethenyl-6-methoxycarbonyl-2-(4-methoxycarbonyl-phenyl)-pyrimidine] | 0 | 20 | 30 | 0 | 0 | 0 | 0 | 0 | 0 | 0 | 0 | 0 |  |
| C=Cc1c(N)nc(-c2ccc3c(c2)OCO3)nc1C(=O)OC [Compound 70-61, 4-Amino-5-ethenyl-6-methoxycarbonyl-2-(3,4-methylenedioxy-phenyl)-pyrimidine] | 100 | 90 | 80 | 100 | 40 | 100 | 100 | 100 | 80 | 80 | 70 | 90 |  |
| C=Cc1c(N)nc(-c2ccc3c(c2)OCCO3)nc1C(=O)OC [Compound 71-61, 4-Amino-5-ethenyl-2-(3,4-ethylenedioxy-phenyl)-6-methoxycarbonyl-pyrimidine] | 20 | 60 | 40 | 0 | 0 | 30 | 0 | 40 | 0 | 10 | 0 | 20 |  |
| C=Cc1c(N)nc(-c2ccc(SC)cc2)nc1C(=O)OC [Compound 72-61, 4-Amino-5-ethenyl-6-methoxycarbonyl-2-(4-methylthiophenyl)-pyrimidine] | 10 | 60 | 50 | 10 | 0 | 0 | 60 | 50 | 70 | 0 | 0 | 0 |  |
| C=Cc1c(N)nc(-c2ccc3ccccc3c2)nc1C(=O)OC [Compound 73-61, 4-Amino-5-ethenyl-6-methoxycarbonyl-2-(2-naphthyl)-pyrimidine] | 20 | 30 | 0 | 0 | 0 | 0 | 0 | 0 | 0 | 0 | 0 | 0 |  |
